{
  "source": "paper PMC5642477",
  "about": "“Phosphodiesterase 10A is overexpressed in lung tumor cells and inhibitors selectively suppress growth by blocking β-catenin and MAPK signaling” (Oncotarget, 2017)",
  "format_in_all_cases": "cell-based, human",
  "key": {"β-catenin in H1299 cells": {"system": "β-catenin in H1299 cells", "test": "Western blotting, β-catenin phosphorylation", "settings": "H1299, PQ10 2 µmol/L, 1 hour; KT5823 0.1 µmol/L, H89 1 µmol/L", "experimental": "(§1) Whole cell extraction was performed according to a previously described method using cell lysing buffer (Cell Signaling) supplemented with 10 mmol/L NaF for protein phosphorylation studies. Cell lysates were separated by 4-12% gradient, 7% or 10% pre-casting PAGE (Novex/Invitrogen) followed by electrophoretic transfer to a nitrocellulose membrane. Western blotting procedures were performed using Chemiluminescence Reagent (Pierce) and visualized using Chemi Doc Imaging System (BioRad)."}, "[1]": {"system": "cleaved PARP and caspase 3 in H1299 cells", "test": "Western blotting, cleaved PARP and caspase 3 (apoptosis)", "settings": "H1299, 24 hours of treatment", "experimental": "as §1"}, "[2]": {"system": "intracellular cGMP levels in H1299 cells", "test": "cGMP biosensor assay (luciferase)", "settings": "H1299, CNP 100 nmol/L; sildenafil 1 µmol/L, IBMX 100 µmol/L", "experimental": "Stable cell lines with an expression of luciferase-based cGMP biosensor were established from H1299 NSCLC cells and HEK293 cells using a genetically encoded GAF-Luc construct (Promega), containing a cGMP-specific binding domain from human PDE5A GAF-A domain fused to modified firefly luciferase (35). Cells were pre-incubated at room temperature in CO2 independent media supplemented with 10% FBS and 5 mmol/L luciferin. For the measurement of intracellular cGMP levels, sodium nitroprusside (SNP) or C-type natriuretic peptide (CNP) in combination with PDE inhibitors were added to initiate the experiment and the increased luminescence values in live cells were detected constantly over a period time of 2 hours."}, "H1299 cells": {"system": "H1299 cells", "test": "Growth assay (Cell Titer Glo)", "settings": "not shown", "experimental": "Cells were plated in half area 96-well microtiter plates (Corning) at a density of 3, 000 cells per well. For drug treatment, cells were treated with compound or DMSO as vehicle (final concentration at 0.2%). For siRNA assays, cells were transfected with siRNAs under the same condition as described above. The effect of treatment on cell growth was measured using the Cell Titer Glo (CTG) assay (Promega) as specified by the measurement of viable cells based on ATP content after 72 hours standard culture. All growth assay involving NSCLCs and NHAECs were performed in the presence of 5% serum.\nDrug effects on cell growth and IC50 values were determined as described previously. All experiments were repeated a minimum of three times to determine the reproducibility of the results. All error bars represent standard error of the mean (SEM). Statistical analysis was performed using Student’s t test or other as indicated. A P value of <0.05 was considered statistically significant."}},
  "data": [
    {"smiles": "COC(=O)[C@@]1(OC)C[C@H]2O[C@]1(C)n1c3ccccc3c3c4c(c5c6ccccc6n2c5c31)C(=O)N(C)C4", "note": "[KT5823]", "values": [
      {"measurement": "effect on PQ10-induced phosphorylation of β-catenin at pSer552", "setting": "β-catenin in H1299 cells", "value": "partial inhibition"},
      {"measurement": "effect on PQ10-induced activation of PARP and caspase 3", "setting": "[1]", "value": "attenuated"}
    ]},
    {"smiles": "O=S(=O)(NCCNC/C=C/c1ccc(Br)cc1)c1cccc2cnccc12", "note": "[H89]", "values": [
      {"measurement": "effect on PQ10-induced phosphorylation of β-catenin at pSer552", "setting": "β-catenin in H1299 cells", "value": "partial inhibition"},
      {"measurement": "effect on PQ10-induced activation of PARP and caspase 3", "setting": "[1]", "value": "ineffective"}
    ]},
    {"smiles": "CCCc1nn(C)c2c(=O)[nH]c(-c3cc(S(=O)(=O)N4CCN(C)CC4)ccc3OCC)nc12", "note": "[Sildenafil, sildenafil]", "values": [
      {"measurement": "effect on luminescence values in biosensor assay", "setting": "[2]", "value": "did not affect luminescence values"},
      {"measurement": "effect on growth of H1299 cells", "setting": "H1299 cells", "value": "no effect"}
    ]}
  ]
}
